Key:
[1] = Transdermal delivery of melatonin: plasma level of melatonin after applying composition to skin of a subject; details: control 2.0 ml of […] melatonin suspension in water, plasma level at 1, 2, 4, 8 hours
human skin tissue = assay: Penetration rate of AI compound in AI-helper composition through human skin in vitro, modified Franz cells; format: in vitro ADME; details: for Skin penetration rate of Al compound: Al compound 0.5% w/v; for Skin penetration rate of Al compound / Skin penetration rate of AI compound: 25 °C; for Skin penetration rate of lipoic acid: alpha-lipoic acid 0.5% w/v, Tyrosine isopropyl ester•HA 6% w/v, 20° C.
Procedure: Penetration rate of AI compound in the AI-helper composition through human skin were measured in vitro by modified Franz cells. A Franz cell had two chambers: the top sample chamber and the bottom receiving chamber. The human skin tissue (450-500 μm thick) that separated the top and the receiving chambers was isolated from the anterior or posterior thigh areas.

[2] = 0.375 mL of 7% helper ester + 0.8% melatonin in water on skin of the back (20 cm×20 cm)
[3] = 0.60 mL of 7% helper ester + 0.5% melatonin in water on skin of the back (20 cm×20 cm)
[4] = 2-(Diethylamino)ethyl 2-(4-isobutylphenyl)propionate hydrochloride 6% w/v, water
[5] = D-Phenylalanine isopropyl ester hydrochloride 6% w/v, water
[6] = Dialkylaminoalkyl 2-(4-isobutylphenyl)propionate: None
[7] = L-Phenylalanine isopropyl ester hydrochloride 6% w/v, water
[8] = no isoleucine ester (None), AI compound 0.5 % w/v in water
[9] = no leucine ester (None), AI compound 0.5 % w/v in water
[10] = no tryptophan ester (None), AI compound 0.5 % w/v in water
[11] = with D-isoleucine isopropyl ester hydrochloride 6 % w/v in water, AI compound 0.5 % w/v
[12] = with D-leucine isopropyl ester hydrochloride 6 % w/v in water, AI compound 0.5 % w/v
[13] = with D-tryptophan isopropyl ester hydrochloride 6 % w/v in water, AI compound 0.5 % w/v
[14] = with L-isoleucine isopropyl ester hydrochloride 6 % w/v in water, AI compound 0.5 % w/v
[15] = with L-leucine isopropyl ester hydrochloride 6 % w/v in water, AI compound 0.5 % w/v
[16] = with L-tryptophan isopropyl ester hydrochloride 6 % w/v in water, AI compound 0.5 % w/v

Molecule	transdermal delivery of melatonin compared to control composition (A) [1, 3]	Skin penetration rate of Al compound (human skin tissue; [4]) [μg/cm^2/h]	Skin penetration rate of Al compound (human skin tissue; [5]) [μg/cm^2/h]	Skin penetration rate of Al compound (human skin tissue; [6]) [μg/cm^2/h]	Skin penetration rate of Al compound (human skin tissue; [7]) [μg/cm^2/h]	Skin penetration rate of Al compound (human skin tissue; Phenylalanine ester: None) [μg/cm^2/h]	Skin penetration rate of AI compound (human skin tissue; [8]) [μg/cm^2/h]	Skin penetration rate of AI compound (human skin tissue; [9]) [μg/cm^2/h]	Skin penetration rate of AI compound (human skin tissue; [10]) [μg/cm^2/h]	Skin penetration rate of AI compound (human skin tissue; [11]) [μg/cm^2/h]	Skin penetration rate of AI compound (human skin tissue; [12]) [μg/cm^2/h]	Skin penetration rate of AI compound (human skin tissue; [13]) [μg/cm^2/h]	Skin penetration rate of AI compound (human skin tissue; [14]) [μg/cm^2/h]	Skin penetration rate of AI compound (human skin tissue; [15]) [μg/cm^2/h]	Skin penetration rate of AI compound (human skin tissue; [16]) [μg/cm^2/h]	other results
CC(=O)Oc1ccccc1C(=O)OCCCCCCN(C)C [6-(Dimethylamino)hexyl 2-acetoxybenzoate]																transdermal delivery of melatonin compared to control composition (A) [1, 2]: more efficient and effective transdermal delivery of melatonin
CCN(CC)CCCCOC(=O)C(C)c1ccc(CC(C)C)cc1 (stereo not shown) [4-(Diethylamino)butyl 2-(4-isobutylphenyl)propionate]	more efficient and effective transdermal delivery of melatonin															
CC(C)C[C@H](N)C(=O)OC(C)C [Leucine isopropyl ester]	more efficient and effective transdermal delivery of melatonin															
CCN(CC)CCOC(=O)c1ccccc1OC(C)=O [2-(Diethylamino)ethyl 2-acetoxybenzoate]																transdermal delivery of melatonin compared to control composition (A) [1, 2]: more efficient and effective transdermal delivery of melatonin
COC(=O)[C@@H](N)CC(C)C [Leucine methyl ester]	more efficient and effective transdermal delivery of melatonin															
CCCCCCOC(=O)[C@@H](N)[C@@H](C)CC [Isoleucine hexyl ester]	more efficient and effective transdermal delivery of melatonin															
Vitamin B12		8.127 ± 3.211	8.156 ± 2.875	0.016 ± 0.008	8.236 ± 3.057	0.012 ± 0.006	0.0011 ± 0.006	0.008 ± 0.009	0.007 ± 0.011	6.816 ± 2.372	6.756 ± 2.325	8.718 ± 3.125	6.873 ± 3.061	6.813 ± 3.111	8.897 ± 3.211	
O=C1O[C@H]([C@@H](O)CO)C(O)=C1O [Vitamin C]		10.112 ± 2.322	10.378 ± 2.155	0.016 ± 0.012	10.301 ± 2.022	0.017 ± 0.015	0.011 ± 0.008	0.008 ± 0.010	0.007 ± 0.013	8.526 ± 2.271	8.256 ± 2.078	11.136 ± 2.385	8.369 ± 2.102	8.378 ± 2.152	11.345 ± 2.612	
CC1=C(/C=C/C(C)=C/C=C/C(C)=C/C=C/C=C(C)/C=C/C=C(C)/C=C/C2=C(C)CCCC2(C)C)C(C)(C)CCC1 [Beta Carotene]		10.138 ± 2.381	10.658 ± 2.003	0.015 ± 0.011	10.772 ± 2.174	0.019 ± 0.008	0.015 ± 0.007	0.012 ± 0.011	0.009 ± 0.013	9.471 ± 2.323	9.501 ± 2.763	11.598 ± 2.173	9.412 ± 2.781	9.252 ± 2.321	11.372 ± 2.326	
Oc1ccc(C=Cc2cc(O)cc(O)c2)cc1 [Resveratrol]		18.568 ± 3.112	18.745 ± 3.112	0.015 ± 0.011	18.978 ± 2.135	0.015 ± 0.011	0.016 ± 0.010	0.013 ± 0.011	0.017 ± 0.021		16.028 ± 2.862	20.728 ± 3.962	16.236 ± 2.805	16.126 ± 3.005	20.177 ± 3.195	
O=C(O)CCCCC1CCSS1 (stereo not shown) [lipoic acid]																Skin penetration rate of lipoic acid (human skin tissue; HA = 1/2H2SO4, water): 34.012 ± 2.685 μg/cm^2/h; Skin penetration rate of lipoic acid (human skin tissue; HA = 1/3H3PO4, water): 33.25 ± 2.762 μg/cm^2/h; Skin penetration rate of lipoic acid (human skin tissue; HA = 2/3H3PO4, water): 34.124 ± 2.912 μg/cm^2/h; Skin penetration rate of lipoic acid (human skin tissue; HA = Acetic acid, water): 33.513 ± 2.319 μg/cm^2/h; Skin penetration rate of lipoic acid (human skin tissue; HA = Benzoic acid, water): 32.913 ± 4.319 μg/cm^2/h; Skin penetration rate of lipoic acid (human skin tissue; HA = Butyric acid, water): 33.452 ± 3.756 μg/cm^2/h; Skin penetration rate of lipoic acid (human skin tissue; HA = Citric acid, water): 34.013 ± 2.569 μg/cm^2/h; Skin penetration rate of lipoic acid (human skin tissue; HA = H2SO4, water): 33.567 ± 3.125 μg/cm^2/h; Skin penetration rate of lipoic acid (human skin tissue; HA = HBr, water): 34.013 ± 3.219 μg/cm^2/h; Skin penetration rate of lipoic acid (human skin tissue; HA = HCl, water): 33.613 ± 2.819 μg/cm^2/h; Skin penetration rate of lipoic acid (human skin tissue; HA = HF, water): 33.613 ± 3.219 μg/cm^2/h; Skin penetration rate of lipoic acid (human skin tissue; HA = HI, water): 33.572 ± 3.129 μg/cm^2/h; Skin penetration rate of lipoic acid (human skin tissue; HA = Lactic acid, water): 32.987 ± 4.212 μg/cm^2/h
Nc1nc2ncc(CNc3ccc(C(=O)N[C@@H](CCC(=O)O)C(=O)O)cc3)nc2c(=O)[nH]1 [Folic acid]		6.235 ± 1.356	6.771 ± 2.872	0.012 ± 0.007	6.757 ± 3.012	0.012 ± 0.007	0.012 ± 0.007	0.007 ± 0.012	0.009 ± 0.011	5.598 ± 2.812	5.523 ± 3.012	6.725 ± 3.327	5.793 ± 3.116	5.786 ± 3.162	6.915 ± 3.452	
